Test results published in patent EP4813381A1, “PHARMACEUTICAL USE OF GUAIANE SESQUITERPENE DERIVATIVE” (Nanjing University Of Chinese Medicine, priority 2023, dated 2025).

How the values were obtained:
[1] = tested on: CCl4-induced liver injury; assay: CCl4 acute liver injury model in mice: serum ALT and AST; type: in vivo, C57BL/6 mice; conditions: 3 days (method: U/L)
Text: The drug of the present invention, prepared according to Example 2; Silybin, Shanghai Yuanye Biotechnology Co., Ltd.; Olive oil, Beijing […] Olive Oil Development Center; Analytical grade carbon tetrachloride (CCl4), Shantou Xilong Chemical Factory; Sodium carboxymethyl cellulose (CMC-Na), Guangdong Shantou Xilong Chemical Factory; RNA Isolater Total RNA Extraction Reagent, […] RT Supermix for qPCR, Nanjing Vazyme Biotech Co., Ltd.; AceQ qPCR SYBR Green Master Mix, Shanghai Yeasen Biotechnology Co., Ltd.; Aspartate Transaminase (AST/GOT) Colorimetric Test Kit, Alanine Transaminase (ALT/GPT) Colorimetric Test Kit, Wuhan Elabscience Biotechnology Co., Ltd. • Experimental animals: […] SCXK(Su)2019-002. […] They were acclimated for 7 days before use in experiments. • Experimental Methods: Establishment of Acute Liver Injury Model in Mice and Group-Specific Drug Administration • Mice were randomly assigned to groups. […] One hour after the final drug administration, blood was collected from the retinal venous plexus. […] Serum was aspirated, aliquoted, and stored at -70 °C for future use. After blood collection, euthanize mice by cervical dislocation. Perform laparotomy to remove the liver. Rinse twice with pre-chilled PBS. Excise the left hepatic lobe tissue. […] Store remaining tissue at -70 °C for future use. • Serum AST and ALT Assay: Use 10 μL of each sample for testing. Determine mouse serum AST and ALT levels according to the operating manual. Measure absorbance at 510 nm using an enzyme-linked immunosorbent assay (ELISA) reader. Calculate sample concentration (U/L) based on the standard curve. Data Statistics: All data are expressed as means ± standard error of the mean (S.E.M.). Differences were analyzed for significance using analysis of variance (ANOVA). For groups showing significant differences in ANOVA, one-way ANOVA followed by Dunnett's test was performed to compare intergroup differences.

lupus nephritis = assay: Lupus nephritis MRL/lpr mice: urinary protein, Scr, BUN, urinary Kim-1 and β-MG; type: in vivo; set-up: Scr / BUN / Kim-1 / β-MG: unit not given here; conditions: oral 30 mg/kg, 8 weeks
Method: RT Supermix for qPCR, Nanjing Vazyme Biotech Co., Ltd.; Urea Colorimetric Test Kit, Creatinine Colorimetric Test Kit, Nanjing Jiancheng Biotechnology Co., Ltd.; Urinary Kim-1 and β-MG Content ELISA Kits, Abcam. • Experimental animals: MRL/MpJ and MRL/lpr mice, female, 10 weeks old, purchased from GemPharmatech LLC. Production license number: SCXK(Su)2023-0009. […] They were acclimated for 7 days before use in experiments. […] Oral administration was performed continuously for 8 weeks. […] Aspirate the serum, aliquot it, and store at -70 °C for future use. After blood collection, euthanize mice by cervical dislocation. Open the abdominal cavity, remove kidneys, and dissect out perirenal fat and capsules. […] Store remaining tissues at -70 °C for future use. Serum Creatinine (Scr) and Blood Urea Nitrogen (BUN) Assay: […] Samples were added sequentially strictly according to the kit instructions, incubated at 37 °C, and measured for absorbance values using an enzyme-linked immunosorbent assay (ELISA) reader. The concentration levels of each indicator were calculated based on the standard curve.

[2] = tested on: MC903-induced atopic dermatitis (AD); assay: MC903-induced ear atopic dermatitis mouse model, oral Compound 20: dermatitis score, ear thickness, serum IgE; conditions: for IgE: serum, AD mice

SMILES: C=C1C(=O)O[C@@H]2[C@@H]3[C@]4(CC[C@@]3(C)O)C[C@]4(C)CC[C@@H]12 [compound 1]
- ALT ([1]; oral 0.1 mg/kg): 173.58 ± 22.75
- AST ([1]; oral 0.1 mg/kg): 424.52 ± 175.34
- ALT ([1]; oral 1 mg/kg): 104.22 ± 5.21
- AST ([1]; oral 1 mg/kg): 237.16±36.70

SMILES: CN(C)C[C@@H]1C(=O)O[C@H]2[C@H]1CC[C@@]1(C)C[C@]13CC[C@@](C)(O)[C@H]23 [compound 20]
- 24-hour urine protein level (lupus nephritis): 0.58±0.03
- BUN (lupus nephritis; serum): 9.55±0.75
- Scr (lupus nephritis; serum): 18.55±1.08
- Kim-1 (lupus nephritis; urine): 0.41±0.02
- β-MG (lupus nephritis; urine): 13.55±0.14
- atopic dermatitis score ([2]; oral 0.1 mg/kg, Day 1): 0.00±0.00
- ear thickness ([2]; oral 0.1 mg/kg, Day 1): 0.20±0.00 mm
- atopic dermatitis score ([2]; oral 0.1 mg/kg, Day 3): 0.67±0.21
- ear thickness ([2]; oral 0.1 mg/kg, Day 3): 0.24±0.00 mm
- atopic dermatitis score ([2]; oral 0.1 mg/kg, Day 5): 1.33±0.21
- ear thickness ([2]; oral 0.1 mg/kg, Day 5): 0.26±0.00 mm
- atopic dermatitis score ([2]; oral 0.1 mg/kg, Day 7): 2.17±0.17
- ear thickness ([2]; oral 0.1 mg/kg, Day 7): 0.26±0.00 mm
- atopic dermatitis score ([2]; oral 0.1 mg/kg, Day 8): 2.50±0.22
- ear thickness ([2]; oral 0.1 mg/kg, Day 8): 0.27±0.00 mm
- atopic dermatitis score ([2]; oral 0.1 mg/kg, Day 9): 3.00±0.26
- ear thickness ([2]; oral 0.1 mg/kg, Day 9): 0.28±0.00 mm
- atopic dermatitis score ([2]; oral 0.1 mg/kg, Day 10): 3.50±0.22
- ear thickness ([2]; oral 0.1 mg/kg, Day 10): 0.29±0.00 mm
- atopic dermatitis score ([2]; oral 0.1 mg/kg, Day 11): 3.67±0.21
- ear thickness ([2]; oral 0.1 mg/kg, Day 11): 0.30±0.00 mm
- atopic dermatitis score ([2]; oral 0.1 mg/kg, Day 12): 3.33±0.21
- ear thickness ([2]; oral 0.1 mg/kg, Day 12): 0.30±0.00 mm
- atopic dermatitis score ([2]; oral 0.1 mg/kg, Day 13): 3.00±0.00
- ear thickness ([2]; oral 0.1 mg/kg, Day 13): 0.30±0.00 mm
- atopic dermatitis score ([2]; oral 0.1 mg/kg, Day 14): 2.67±0.21
- ear thickness ([2]; oral 0.1 mg/kg, Day 14): 0.29±0.00 mm
- atopic dermatitis score ([2]; oral 1 mg/kg, Day 1): 0.00±0.00
- ear thickness ([2]; oral 1 mg/kg, Day 1): 0.20±0.00 mm
- atopic dermatitis score ([2]; oral 1 mg/kg, Day 3): 0.50±0.22
- ear thickness ([2]; oral 1 mg/kg, Day 3): 0.23±0.00 mm
- atopic dermatitis score ([2]; oral 1 mg/kg, Day 5): 1.17±0.17
- ear thickness ([2]; oral 1 mg/kg, Day 5): 0.24±0.00 mm
- atopic dermatitis score ([2]; oral 1 mg/kg, Day 7): 1.67±0.21
- ear thickness ([2]; oral 1 mg/kg, Day 7): 0.26±0.00 mm
- atopic dermatitis score ([2]; oral 1 mg/kg, Day 8): 2.17±0.17
- ear thickness ([2]; oral 1 mg/kg, Day 8): 0.27±0.00 mm
- atopic dermatitis score ([2]; oral 1 mg/kg, Day 9): 2.83±0.17
- ear thickness ([2]; oral 1 mg/kg, Day 9): 0.28±0.00 mm
- atopic dermatitis score ([2]; oral 1 mg/kg, Day 10): 3.00±0.00
- ear thickness ([2]; oral 1 mg/kg, Day 10): 0.28±0.00 mm
- atopic dermatitis score ([2]; oral 1 mg/kg, Day 11): 3.17±0.17
- ear thickness ([2]; oral 1 mg/kg, Day 11): 0.28±0.00 mm
- atopic dermatitis score ([2]; oral 1 mg/kg, Day 12): 2.67±0.21
- ear thickness ([2]; oral 1 mg/kg, Day 12): 0.27±0.00 mm
- atopic dermatitis score ([2]; oral 1 mg/kg, Day 13): 2.50±0.22
- ear thickness ([2]; oral 1 mg/kg, Day 13): 0.27±0.00 mm
- atopic dermatitis score ([2]; oral 1 mg/kg, Day 14): 2.00±0.00
- ear thickness ([2]; oral 1 mg/kg, Day 14): 0.27±0.00 mm
- atopic dermatitis score ([2]; oral 10 mg/kg, Day 1): 0.00±0.00
- ear thickness ([2]; oral 10 mg/kg, Day 1): 0.20±0.00 mm
- atopic dermatitis score ([2]; oral 10 mg/kg, Day 3): 0.67±0.21
- ear thickness ([2]; oral 10 mg/kg, Day 3): 0.23±0.00 mm
- atopic dermatitis score ([2]; oral 10 mg/kg, Day 5): 1.00±0.00
- ear thickness ([2]; oral 10 mg/kg, Day 5): 0.25±0.00 mm
- atopic dermatitis score ([2]; oral 10 mg/kg, Day 7): 2.00±0.00
- ear thickness ([2]; oral 10 mg/kg, Day 7): 0.26±0.00 mm
- atopic dermatitis score ([2]; oral 10 mg/kg, Day 8): 2.50±0.22
- ear thickness ([2]; oral 10 mg/kg, Day 8): 0.27±0.00 mm
- atopic dermatitis score ([2]; oral 10 mg/kg, Day 9): 2.83±0.17
- ear thickness ([2]; oral 10 mg/kg, Day 9): 0.27±0.00 mm
- atopic dermatitis score ([2]; oral 10 mg/kg, Day 10): 2.67±0.42
- ear thickness ([2]; oral 10 mg/kg, Day 10): 0.27±0.00 mm
- atopic dermatitis score ([2]; oral 10 mg/kg, Day 11): 3.00±0.26
- ear thickness ([2]; oral 10 mg/kg, Day 11): 0.27±0.00 mm
- atopic dermatitis score ([2]; oral 10 mg/kg, Day 12): 2.33±0.33
- ear thickness ([2]; oral 10 mg/kg, Day 12): 0.25±0.00 mm
- atopic dermatitis score ([2]; oral 10 mg/kg, Day 13): 1.67±0.21
- ear thickness ([2]; oral 10 mg/kg, Day 13): 0.25±0.00 mm
- atopic dermatitis score ([2]; oral 10 mg/kg, Day 14): 1.50±0.22
- ear thickness ([2]; oral 10 mg/kg, Day 14): 0.24±0.01 mm
- IgE ([2]; oral 0.1 mg/kg): 239.26 ± 48.93 ng/mL
- IgE ([2]; oral 1 mg/kg): 167.90 ± 21.03 ng/mL
- IgE ([2]; oral 10 mg/kg): 145.68 ± 23.19 ng/mL
